Laboratory results from patent US20060069132A1, “Azolecarboxamide herbicides” (priority 2004, published 2006).

Columns and labels:
wheat = test: Test B postemergence herbicide test; type: in vivo, Triticum aestivum; set-up: key to Wheat plant response rating: 0 = no effect, 100 = complete control; details: postemergence, visual rating, scale 0 (no effect) to 100 (complete control)
Procedure, shortened: (§1)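 After treating 2-leaf paddy plants or 2–18 cm postemergence plants (1 to 4 leaves) with formulated chemical, researchers kept them in a greenhouse for 13–15 days. Effects were judged visually versus controls: 0 indicates none, 100 total control.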

barnyardgrass = test: Test B pre-/postemergence herbicide test; type: in vivo, Echinochloa crus-galli; details: for Barnyardgrass plant response rating: postemergence, visual rating, scale 0 (no effect) to 100 (complete control)
Procedure, shortened: (§2)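 Species tested were Echinochloa crus-galli, Ipomoea coccinea, Xanthium strumarium and Oryza sativa, treated both before emergence and at the 1- to 4-leaf stage; rice and barnyardgrass were also tested under flooding at 2 leaves. Greenhouse incubation lasted 13–15 days before visual 0–100 scoring.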

morningglory = test: Test B pre-/postemergence herbicide test; type: in vivo, Ipomoea coccinea; details: for Morningglory plant response rating: postemergence, visual rating, scale 0 (no effect) to 100 (complete control)
Procedure, shortened: as §2

giant foxtail = test: Test B pre-/postemergence herbicide test; type: in vivo, Setaria faberi; details: for Foxtail, Giant plant response rating: postemergence, visual rating, scale 0 (no effect) to 100 (complete control)
Procedure, shortened: (§3)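 Plants compared with untreated controls 13–15 days post-treatment and given a visual 0–100 injury score. Applications: preemergence to seeds; postemergence at 1- to 4-leaf (2–18 cm); paddy species flooded, 2-leaf stage. Vehicle non-phytotoxic, surfactant included.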

rice = test: Test B flooded paddy test; type: in vivo, Oryza sativa; details: 1000 g ai/ha, visual rating, scale 0 to 100 (0 no effect, 100 complete control), 13 to 15 days
Procedure, shortened: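 Formulated test chemicals went onto postemergence plants measuring 2 to 18 cm, at one to four leaves. For the paddy assay, species had reached two leaves. Scoring took place 13–15 days later by eye, relative to untreated plants, using 0 for no effect up to 100 for full control.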

velvetleaf = test: Test B pre-/postemergence herbicide test; type: in vivo, Abutilon theophrasti; details: for Velvetleaf plant response rating: postemergence, visual rating, scale 0 (no effect) to 100 (complete control)
Procedure, shortened: as §3

blackgrass = test: Test B postemergence herbicide test; type: in vivo, Alopecurus myosuroides; details: postemergence, visual rating, scale 0 (no effect) to 100 (complete control)
Procedure, shortened: (§4)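 Plants grow to 1- to 4-leaf stage (2–18 cm) for postemergence spraying, or to 2-leaf stage for the paddy test. Formulated compound is applied. Greenhouse holding lasts 13–15 days. Response is scored visually relative to controls, 0 no effect to 100 complete control; a dash means no result.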

lambsquarters = test: Test B pre-/postemergence herbicide test; type: in vivo, Chenopodium album; details: for Lambsquarters plant response rating: postemergence, visual rating, scale 0 (no effect) to 100 (complete control)
Procedure, shortened: as §3

[1] = tested on: small flower umbrella sedge; test: Test B flooded paddy test; type: in vivo, Cyperus difformis; details: 1000 g ai/ha, visual rating, scale 0 to 100 (0 no effect, 100 complete control), 13 to 15 days
Procedure, shortened: as §4

large crabgrass = test: Test B pre-/postemergence herbicide test; type: in vivo, Digitaria sanguinalis; details: for Crabgrass, Large plant response rating: postemergence, visual rating, scale 0 (no effect) to 100 (complete control)
Procedure, shortened: as §3

ducksalad = test: Test B flooded paddy test; type: in vivo, Heteranthera limosa; details: 1000 g ai/ha, visual rating, scale 0 to 100 (0 no effect, 100 complete control), 13 to 15 days
Procedure, shortened: as §4

Surinam grass = test: Test B pre-/postemergence herbicide test; type: in vivo, Urochloa decumbens; details: for Surinam Grass plant response rating: postemergence, visual rating, scale 0 (no effect) to 100 (complete control)
Procedure, shortened: as §3

wild oat = test: Test B postemergence herbicide test; type: in vivo, Avena fatua; details: postemergence, visual rating, scale 0 (no effect) to 100 (complete control)
Procedure, shortened: as §1

pigweed = test: Test B pre-/postemergence herbicide test; type: in vivo, Amaranthus retroflexus; details: for Pigweed plant response rating: postemergence, visual rating, scale 0 (no effect) to 100 (complete control)
Procedure, shortened: as §3

corn = test: Test B pre-/postemergence herbicide test; type: in vivo, Zea mays; details: for Corn plant response rating: postemergence, visual rating, scale 0 (no effect) to 100 (complete control)
Procedure, shortened: as §3

[2] = 125 g ai/ha, 0 = no effect, 100 = complete control, preemergence
[3] = 500 g ai/ha, visual rating 0-100, 0 no effect, 100 complete control, preemergence

CCNC(=O)c1cccc(NC(=O)c2sc(C(C)(C)C)nc2CC)c1 [Compound 210]
90: Plant response rating, Barnyardgrass (barnyardgrass; [3]) | Crabgrass, Large plant response rating (0 to 100 scale) (large crabgrass; [2]) | Plant response rating, Crabgrass, Large (large crabgrass; [3])
10: Velvetleaf plant response rating (0 to 100 scale) (velvetleaf; [2]) | Blackgrass plant response rating (blackgrass; 125 g ai/ha)
100: Plant response rating, Foxtail, Giant (giant foxtail; [3]) | Lambsquarters plant response rating (0 to 100 scale) (lambsquarters; [2]) | Plant response rating, Lambsquarters (lambsquarters; [3]) | Pigweed plant response rating (0 to 100 scale) (pigweed; [2]) | Plant response rating, Pigweed (pigweed; [3])
80: Foxtail, Giant plant response rating (0 to 100 scale) (giant foxtail; [2]) | Lambsquarters plant response rating (lambsquarters; 500 g ai/ha) | Sedge, Umbrella plant response rating [1] | Ducksalad plant response rating (ducksalad)
40: Barnyardgrass plant response rating (barnyardgrass; 500 g ai/ha) | Pigweed plant response rating (pigweed; 125 g ai/ha)
30: Plant response rating, Morningglory (morningglory; [3]) | Morningglory plant response rating (morningglory; 125 g ai/ha) | Foxtail, Giant plant response rating (giant foxtail; 500 g ai/ha) | Velvetleaf plant response rating (velvetleaf; 125 g ai/ha) | Blackgrass plant response rating (blackgrass; 500 g ai/ha) | Surinam Grass plant response rating (Surinam grass; 500 g ai/ha)
20: Wheat plant response rating (wheat; 125 g ai/ha) | Wheat plant response rating (wheat; 500 g ai/ha) | Barnyardgrass plant response rating (barnyardgrass; 125 g ai/ha) | Morningglory plant response rating (0 to 100 scale) (morningglory; [2]) | Foxtail, Giant plant response rating (giant foxtail; 125 g ai/ha) | Crabgrass, Large plant response rating (large crabgrass; 125 g ai/ha) | Crabgrass, Large plant response rating (large crabgrass; 500 g ai/ha) | Surinam Grass plant response rating (Surinam grass; 125 g ai/ha) | Oat, Wild plant response rating (wild oat; 125 g ai/ha) | Oat, Wild plant response rating (wild oat; 500 g ai/ha) | Corn plant response rating (0 to 100 scale) (corn; [2]) | Corn plant response rating (corn; 125 g ai/ha)
60: Surinam Grass plant response rating (0 to 100 scale) (Surinam grass; [2]) | Corn plant response rating (corn; 500 g ai/ha)
70: Barnyardgrass plant response rating (0 to 100 scale) (barnyardgrass; [2]) | Morningglory plant response rating (morningglory; 500 g ai/ha) | Rice plant response rating (rice) | Plant response rating, Velvetleaf (velvetleaf; [3]) | Velvetleaf plant response rating (velvetleaf; 500 g ai/ha) | Lambsquarters plant response rating (lambsquarters; 125 g ai/ha) | Plant response rating, Surinam Grass (Surinam grass; [3]) | Pigweed plant response rating (pigweed; 500 g ai/ha) | Plant response rating, Corn (corn; [3])
